“Also recorded” adds a separate entry of the source.
What was measured:
isolated rat adipocytes [1] = test: Leptin secretion/production by isolated cultured rat adipocytes (RIA); assay type: cell-based; settings: for increase of leptin secretion/production: Malate 2-5 mM, fumarate 5 mM, alone or in combination, low insulin and glucose, over control
Method: (§1) Cell isolation/preparation: Adipocytes are prepared from epididymal fat pads from male Sprague-Dawley rats weighing 300-600 g. Epididymal fat depots are resected from halothane anesthetized rats under aseptic conditions and adipocytes are isolated by collagenase digestion by the Rodbell method (Rodbell M. Metabolism of isolated fat cells. I. Effects of hormones on glucose metabolism and lipolysis. J Biol Chem. 1964; 239: 375-380), with minor modifications as previously described (Mueller W M, Gregoire F M, Stanhope K L, Mobbs C V, Mizuno T M, Warden C H, Stem J S, Havel P J. Evidence that glucose metabolism regulates leptin secretion from isolated adipocytes. Endocrinology 139: 551-558, 1998; Mueller W M, Stanhope K L, Gregoire F, Evans J L, Havel P J. Effects of metformin and vanadium on leptin secretion from cultured rat adipocytes. Obesity Res. 8: 530-539, 2000; Medina E A, Stanhope K L, Mizuno T M, Mobbs C V, Gregoire F, Hubbard N E, Erickson K L, Havel P J. Effects of tumor necrosis factor alpha on leptin secretion and gene expression: relationship to changes of glucose metabolism in isolated rat adipocytes. Int J Obes Relat Metab Disord. 23: 896-903, 1999.). The isolated adipocytes are then incubated for 30 minutes at 37 C before being plated and cultured on Matrigel-coated plates.
(§2) Adipocyte Culture: Adipocytes are maintained in culture anchored to a basement membrane matrix (Matrigel, Becton Dickinson, Franklin Lakes, N.J.) or collagen from Cohesion Technologies, (Palo Alto, Calif.). Although all in vitro systems have inherent advantages and disadvantages, advantages of this system compared with cultures containing free-floating adipocytes are that the matrix simulates their normal basement membrane attachment and that the cells are maintained in close proximity to each other, allowing direct cell to cell contact. Together the cell contact and basement membrane attachment help to maintain differentiation, since adipocytes have a strong tendency to dedifferentiate in long-term (>24 h) culture. In addition, the matrix and the small amount of serum in the media both contain growth factors, which are also likely to help in maintaining cell differentiation. Furthermore, the adipocytes in this system are not exposed to toxic levels of oxygen at the interface of the media and the incubator atmosphere, as opposed to free-floating adipocytes which aggregate at the surface of the media. An advantage of the system over those containing minced adipose tissue is that all of the cells in the culture are equally exposed to the nutrients and the oxygen dissolved in the media. Thus, although clearly different from the in vivo situation, this system provides a more physiological environment than most systems for maintaining adipocytes in long-term culture.
(§3) In culturing each suspension, Matrigel is first thawed on ice to a liquid and uniformly applied to the surface of culture dishes (300 μl Matrigel/35 mm well). After the incubation period, 150 μl of the adipocyte suspension (2:1 ratio of packed cells to media) are plated on the Matrigel or collagen matrix. Adipocytes from each suspension are thoroughly mixed with a transfer pipette before plating to insure that a similar number adipocytes with a similar size distribution are added to the control and experimental wells for each suspension. The warmth of the added cells and buffer causes the Matrigel to gel around the adipocytes, or the neutralization of the acidic pH of the collagen solution to 7.0 solidifies the collagen, and both of these techniques effectively anchor the adipocytes to the culture dish. After a 30 minute incubation at 37° C., 2 ml of warm culture medium is added. The cells are maintained in an incubator at 37° C. for 96 hours with 6% CO2. Aliquots of adipocytes from each animal are divided into wells, with the different concentrations of insulin or other agents to be tested. In each plate an appropriate control well contains adipocytes from the same animal. […]

isolated rat adipocytes [2] = test: Glucose utilization (uptake) by isolated cultured rat adipocytes; assay type: cell-based
Method: as §1, §2, §3

[3] = system: isolated, cultured adipocytes; test: Fatty acid oxidation: incorporation of 14C-labeled oleate into CO2 by cultured adipocytes; assay type: cell-based, rat
Method: Experiments were also carried out to examine fatty acid oxidation by measuring the incorporation of ^14C-labeled oleate into CO2. […] Therefore, to further examine the potential role of fatty acid oxidation adipocytes were incubated with L-carnitine, a cofactor of the rate-limiting step for fatty acid transport into the mitochondria via carnitine-palmitoyl-tranferase (CPT).
Substrate Oxidation: Oxidation is measured using a modification of the method of Rodbell (Rodbell, 1964) and a modification of the cell culture system described by Bottcher and Furst (Bottcher, 1996). Briefly, adipocytes are isolated, counted and sized as previously described. Adipocytes are plated as described except they are placed in a sterile 20 ml scintillation vial instead of a well. Two ml of treatment media containing [U-^14C]-substrate (0.3 uCi/ml; glucose, fatty acids, malate, fumarate, pyruvate) is added to the vials. The vials are filled with 95% O2-5% CO2 gas and capped with rubber stoppers fitted with a hanging center well. Each well contains a 2×8 cm strip of Whatman No. 1 paper. Vials are maintained at 37° C. for 48 hr. […] After 24 hours, the hanging well and paper are transferred to another vial containing scintillation fluid and counted. The data are expressed as % DPM recovered as CO2 of the total DPM remaining in the media at 48 hours and as micromoles of substrate oxidized over time.

isolated rat adipocytes [4] = test: Glucose oxidation: incorporation of 14C-glucose into CO2 by isolated rat adipocytes; assay type: cell-based; settings: L-carnitine
Method: Substrate Oxidation: Oxidation is measured using a modification of the method of Rodbell (Rodbell, 1964) and a modification of the cell culture system described by Bottcher and Furst (Bottcher, 1996). Briefly, adipocytes are isolated, counted and sized as previously described. Adipocytes are plated as described except they are placed in a sterile 20 ml scintillation vial instead of a well. Two ml of treatment media containing [U-^14C]-substrate (0.3 uCi/ml; glucose, fatty acids, malate, fumarate, pyruvate) is added to the vials. The vials are filled with 95% O2-5% CO2 gas and capped with rubber stoppers fitted with a hanging center well. Each well contains a 2×8 cm strip of Whatman No. 1 paper. Vials are maintained at 37° C. for 48 hr. After 48 hr, a sample of media is removed from each vial using a 4 inch, 23 gauge needle. Using another syringe and 23 gauge needle, 200 ul of sodium benzethonium is placed onto the paper strip and hanging well to capture CO2. Concentrated sulfuric acid is added to the vial in order to lyse cells and liberate all CO2 from the collagen matrix. After 24 hours, the hanging well and paper are transferred to another vial containing scintillation fluid and counted. The data are expressed as % DPM recovered as CO2 of the total DPM remaining in the media at 48 hours and as micromoles of substrate oxidized over time.

isolated rat adipocytes [5] = test: Lactate production and proportion of glucose anaerobically metabolized to lactate in isolated cultured rat adipocytes; assay type: cell-based
Method: as §1, §2, §3

isolated rat adipocytes [6] = test: Incorporation of glucose carbon into triglyceride in cultured adipocytes; assay type: cell-based
Method: Incorporation of Glucose Carbon into Triglyceride: To measure glucose incorporation into triglyceride, cultures are exposed to media containing 0.01 uCi/ml of ^14C-glucose. After 96 hr, media and extracellular lipid is removed from the well and methanol added. Then scrape the collagen-cell matrix from the well and transfer into a 50 ml glass tube. Rinse the well and scrape again in methanol to assure complete transfer of cells. Total triglycerides will be extracted using the Folch method (Folch, 1957). An aliquot of the lipid extract will be placed into vials containing scintillation fluid then radioactivity will be measured.
The first measurement is used to calculate the amount of glucose incorporated into triglycerides. Another aliquot of the lipid extract is placed into pre-weighed aluminum pans to determine the total amount of triglyceride per well. The remaining lipid is saponified and acidified to separate the glycerol and fatty acids. An aliquot of the lipid extract is placed into vials containing scintillation fluid and counted. This second count represents the ^14C-glucose incorporation into fatty acids. By subtraction, the amount that was incorporated into triglyceride though glycerol is also determined. Glucose incorporation into triglyceride and into the fatty acid portion of the triglyceride are calculated by multiplying disintegration per min by total ug of glucose/well over the total DPM/well.

leptin promoter = test: Leptin promoter luciferase construct transfected into 3T3-L1 cells; assay type: cell-based
[7] = DTNB 100 μM, NEM 0.1 μM, DCA 2 mM
[8] = NEM 0.1 μM + insulin 0.48 nM vs control (insulin only)
[9] = NEM 0.1 μM + insulin 0.48 nM, isolated rat adipocytes, 96 h culture

O=C(O)CC(O)C(=O)O (stereo not shown) [Malate]
increase of leptin secretion/production (isolated rat adipocytes [1]): 20% | increase of leptin secretion/production (isolated rat adipocytes [1]; listed as malate): +20%

C[N+](C)(C)C[C@H](O)CC(=O)[O-] [Carnitine, L-carnitine]
effect on glucose utilization (in words) (isolated rat adipocytes [2]; Carnitine 20 mM): inhibited | increase of fatty acid oxidation ([3]; Carnitine 20 mM, n=7, percent of control): 50% | effect on fatty acid oxidation (in words) ([3]; L-carnitine): increased | effect on leptin secretion (in words) (isolated rat adipocytes [1]; Carnitine 20 mM, n=12): modestly increased | effect on glucose oxidation (in words) (isolated rat adipocytes [4]): inhibited | effect on proportion of glucose metabolized to lactate (in words) (isolated rat adipocytes [5]; Carnitine 20 mM): increased | effect on incorporation of labeled glucose into TG/lipid (in words) (isolated rat adipocytes [6]; Carnitine 20 mM): inhibited

O=CC[C@@H](O)[C@H](O)[C@H](O)CO [2-DG, 2-deoxy-D-glucose]
effect on activity of control plasmid (in words) (leptin promoter; insulin 10 nM, 2-DG 10 mg/dl): unaffected | effect on leptin promoter activity (in words) (leptin promoter; insulin 0.1 to 10 nM, 2-DG 10 mg/dl on basal and insulin-stimulated (10 nM) activity): markedly inhibited; also recorded: completely blocked | effect on leptin secretion and ob gene expression (in words) (isolated rat adipocytes [1]; 2-DG treatment): suppressed

CCN1C(=O)C=CC1=O [NEM, N-ethylmaleimide]
effect on total / insulin-mediated glucose utilization (in words) (isolated rat adipocytes [2]; [7]): increased | Change in Parameter: Glucose Uptake (μg) over 96 h (isolated rat adipocytes [2]; [8]): +348 ± 114 μg | Glucose Uptake (μg) over 96 h (isolated rat adipocytes [2]; [9]): 1399 ± 132 µg | % ΔLeptin Produced over 96 h (isolated rat adipocytes [1]; [8]): +26.6 ± 6.2% | % Δ[Leptin] (ng/ml) at 96 h (isolated rat adipocytes [1]; [8]): +25.3 ± 6.3% | Change in Parameter: Leptin (ng) Produced over 96 h (isolated rat adipocytes [1]; [8]): +14.2 ± 4.2 ng | Change in Parameter: [Leptin] (ng/ml) at 96 h (isolated rat adipocytes [1]; [8]): +4.0 ± 1.0 ng/ml | Leptin (ng) Produced over 96 h (isolated rat adipocytes [1]; [9]): 63.4 ± 8.2 ng | [Leptin] (ng/ml) at 96 h (isolated rat adipocytes [1]; [9]): 18.4 ± 2.4 ng/mL | effect on leptin production/secretion (in words) (isolated rat adipocytes [1]; PDH kinase inhibitors DTNB, NEM, DCA, cultured adipocytes): increase | increase of leptin production/secretion (isolated rat adipocytes [1]; PDH kinase inhibitors vs control: DTNB 100 μM, NEM 0.1 μM, DCA 2 mM, cultured adipocytes): 25% | effect on glucose not converted to lactate or incorporated into TG (OTHER; glucose flux into oxidation), by subtraction (in words) (isolated rat adipocytes [5]; [7]): increased | effect on proportion of glucose anaerobically metabolized to lactate (in words) (isolated rat adipocytes [5]; [7]): decreased | effect on lactate production (in words) (isolated rat adipocytes [5]; DTNB 100 μM, NEM 0.1 μM, DCA 0.1 to 5.0 mM): without any increase | Change in Parameter: Glucose to Lactate (%) (isolated rat adipocytes [5]; [8]): −6.9 ± 2.3% | Change in Parameter: Lactate Produced (μg) over 96 h (isolated rat adipocytes [5]; [8]): -10 ± 13 µg | Glucose to Lactate (%) (isolated rat adipocytes [5]; [9]): 13.6 ± 1.5% | Lactate Produced (μg) over 96 h (isolated rat adipocytes [5]; [9]): 178 ± 11 µg | effect on proportion of glucose incorporated into TG (in words) (isolated rat adipocytes [6]; [7]): without affecting

Reference: patent US20070203225A1, “METHOD OF INCREASING ENDOGENOUS ADIPONECTIN PRODUCTION AND LEPTIN PRODUCTION” (priority 2001, published 2007)
